Structures are written as SMILES. Counter-ions that a name gives are not always drawn.

For the test, the target named is T1, recombinant human SAE enzyme (Homo sapiens, UniProt Q9UBT2).
T1 sequence (Q9UBT2 1-640): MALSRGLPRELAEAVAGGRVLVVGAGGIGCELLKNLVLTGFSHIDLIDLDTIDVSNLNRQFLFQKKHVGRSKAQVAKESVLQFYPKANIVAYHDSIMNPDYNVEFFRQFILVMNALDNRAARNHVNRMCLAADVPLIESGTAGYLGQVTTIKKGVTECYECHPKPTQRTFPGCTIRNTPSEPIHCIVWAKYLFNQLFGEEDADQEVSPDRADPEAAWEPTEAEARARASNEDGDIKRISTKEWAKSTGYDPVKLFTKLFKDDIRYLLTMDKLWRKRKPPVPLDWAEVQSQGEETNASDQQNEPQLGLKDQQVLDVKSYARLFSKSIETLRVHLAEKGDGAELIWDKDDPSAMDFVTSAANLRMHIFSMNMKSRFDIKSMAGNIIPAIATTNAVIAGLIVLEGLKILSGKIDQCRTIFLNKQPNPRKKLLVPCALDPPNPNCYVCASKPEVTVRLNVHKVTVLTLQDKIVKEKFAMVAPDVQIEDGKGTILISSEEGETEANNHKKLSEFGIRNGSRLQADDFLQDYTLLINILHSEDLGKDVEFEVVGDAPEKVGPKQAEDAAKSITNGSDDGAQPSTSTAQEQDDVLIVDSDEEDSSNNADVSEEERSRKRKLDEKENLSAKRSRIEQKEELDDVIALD
T1 sequence (Q9UBE0 1-346 partner): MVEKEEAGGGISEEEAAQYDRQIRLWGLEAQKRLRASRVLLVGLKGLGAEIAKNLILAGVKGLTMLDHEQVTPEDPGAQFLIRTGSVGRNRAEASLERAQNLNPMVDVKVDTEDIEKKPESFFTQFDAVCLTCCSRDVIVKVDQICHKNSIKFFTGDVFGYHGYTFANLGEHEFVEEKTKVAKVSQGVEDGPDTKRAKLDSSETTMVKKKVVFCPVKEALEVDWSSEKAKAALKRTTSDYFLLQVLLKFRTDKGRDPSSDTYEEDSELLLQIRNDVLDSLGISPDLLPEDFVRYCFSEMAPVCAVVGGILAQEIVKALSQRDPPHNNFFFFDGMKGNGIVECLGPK
The test can be described thus: SAE HTRF Enzyme Assay. Format: biochemical. Conditions: for IC50: class symbols A-C; for inhibition at 0.111 µM: compound concentration 0.111 μM, read-out: Percent Inhibition. The procedure, abridged: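 Reaction with 0.11 nM recombinant human SAE, 0.5 μM ATP, 0.01 μM Ubc9-GST, 0.125 μM Sumo-Flag in HEPES pH 7.5, MgCl2, GSH, BSA, 105 min at 24 °C. Stopped with EDTA/KF buffer carrying Eu-anti-Flag and anti-GST-APC; HTRF read after 2 h; % inhibition or IC50.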

On to `Cc1cc(Cn2ccc(C(=O)c3cncnc3N[C@@H]3C[C@H](COS(N)(=O)=O)[C@@H](O)C3)n2)no1` [Compound I-348, [(1R,2S,4R)-2-hydroxy-4-{[5-({1-[(5-methylisoxazol-3-yl)methyl]-1H-pyrazol-3-yl}carbonyl)pyrimidin-4-yl]amino}cyclopentyl]methyl sulfamate], for which the IC50 (as a rule, the concentration that inhibits the measured activity by half) was < 10 nM and the inhibition – broadly, how much of the control response was suppressed – at 0.111 µM came to 94%.

Take `NS(=O)(=O)OC[C@H]1C[C@@H](Nc2ncncc2C(=O)c2ccn(Cc3cccc(OC(F)(F)F)c3)n2)[C@H](O)[C@@H]1O` [Compound I-349, [(1R,2R,3S,4R)-2,3-dihydroxy-4-{[5-({1-[3-(trifluoromethoxy)benzyl]-1H-pyrazol-3-yl}carbonyl)pyrimidin-4-yl]amino}cyclopentyl]methyl sulfamate]: the IC50 was < 10 nM and the inhibition at 0.111 µM was determined as 100%.

As to `NS(=O)(=O)OC[C@H]1C[C@@H](Nc2ncncc2C(=O)c2ccn(Cc3cccc(Br)n3)n2)C[C@@H]1O` [Compound I-352, [(1R,2S,4R)-4-{[5-({1-[(6-bromopyridin-2-yl)methyl]-1H-pyrazol-3-yl}carbonyl)pyrimidin-4-yl]amino}-2-hydroxycyclopentyl]methyl sulfamate], the IC50 is < 10 nM and the inhibition at 0.111 µM amounted to 99%.

`CC(C)(O)c1cc(C(=O)c2cncnc2N[C@@H]2C[C@H](COS(N)(=O)=O)[C@@H](O)C2)nn1Cc1cccc(Br)c1` [Compound I-367, {(1R,2S,4R)-4-[(5-{[1-(3-bromobenzyl)-5-(2-hydroxypropan-2-yl)-1H-pyrazol-3-yl]carbonyl}pyrimidin-4-yl)amino]-2-hydroxycyclopentyl}methyl sulfamate]: the IC50 is < 10 nM and the inhibition at 0.111 µM is 99%.

As for `COCc1cc(C(=O)c2cncnc2N[C@@H]2C[C@H](COS(N)(=O)=O)[C@@H](O)C2)nn1Cc1cccc(Br)c1` [Compound I-368, {(1R,2S,4R)-4-[(5-{[1-(3-bromobenzyl)-5-(methoxymethyl)-1H-pyrazol-3-yl]carbonyl}pyrimidin-4-yl)amino]-2-hydroxycyclopentyl}methyl sulfamate], the IC50 was < 10 nM and the inhibition at 0.111 µM was 98%.

With `N[C@@H]1[C@H](O)[C@@H](COS(N)(=O)=O)C[C@H]1Nc1ncncc1C(=O)c1ccn(Cc2cccc(Br)c2)n1` [Compound I-370, {(1R,2R,3S,4R)-3-amino-4-[(5-{[1-(3-bromobenzyl)-1H-pyrazol-3-yl]carbonyl}pyrimidin-4-yl)amino]-2-hydroxycyclopentyl}methyl sulfamate.2[HCl]], the IC50 is 10 to 100 nM and the inhibition at 0.111 µM was 78%.

The values are drawn from patent publication US9695154B2, “Heteroaryl inhibitors of sumo activating enzyme” (MILLENNIUM PHARMACEUTICALS, INC., priority 2013, dated 2017).
